According to paper PMC6746079, “Development of Pyridine-based Inhibitors for the Human Vaccinia-related Kinases 1 and 2” (ACS Medicinal Chemistry Letters, 2019):

Test system: HeLa cells
Assay type: cell-based, human
Details: MTT, concluding statement

Cc1ncc(-c2cc(F)c(O)c(F)c2)cc1-c1cc(F)c(O)c(F)c1 [compound 26]
toxicity to human cells: not overtly toxic
